Holding throughout (assay type): biochemical
For one assay, the target named is PI3K-alpha (Homo sapiens, UniProt P42336). Briefly: PI3K-alpha fluorescence polarization assay. In general terms: Fluorescence polarisation rises when a labelled molecule tumbles more slowly, as on binding a larger partner.
For another assay, the target named is T1, human TOR (Homo sapiens, UniProt P42345).
T1 construct: FLAG
Put plainly: mTOR enzyme assay (DELFIA, His6-S6K substrate).

The target of a further assay is PI3K-gamma (Homo sapiens, UniProt P48736). Briefly: PI3K-gamma fluorescence polarization assay. As to conditions: PI3Kγ Avg. IC50. In short, it runs like this:
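Each isoform (5 ng) phosphorylated 2.5 μM diC8-PI(4,5)P2 at 25 μM ATP for one hour at 25° C in the presence of inhibitor. Reactions were then stopped with EDTA, and product was detected by fluorescence polarization using a GST-GRP1 PH domain and a BODIPY-TMR-labelled IP4 tracer.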

Setting [1] is: read-out: mTOR Kinase Avg. IC50.

Where two headings read alike, the source gives them in different places.

Sequence of PI3K-alpha (P42336 whole entry, species assumed): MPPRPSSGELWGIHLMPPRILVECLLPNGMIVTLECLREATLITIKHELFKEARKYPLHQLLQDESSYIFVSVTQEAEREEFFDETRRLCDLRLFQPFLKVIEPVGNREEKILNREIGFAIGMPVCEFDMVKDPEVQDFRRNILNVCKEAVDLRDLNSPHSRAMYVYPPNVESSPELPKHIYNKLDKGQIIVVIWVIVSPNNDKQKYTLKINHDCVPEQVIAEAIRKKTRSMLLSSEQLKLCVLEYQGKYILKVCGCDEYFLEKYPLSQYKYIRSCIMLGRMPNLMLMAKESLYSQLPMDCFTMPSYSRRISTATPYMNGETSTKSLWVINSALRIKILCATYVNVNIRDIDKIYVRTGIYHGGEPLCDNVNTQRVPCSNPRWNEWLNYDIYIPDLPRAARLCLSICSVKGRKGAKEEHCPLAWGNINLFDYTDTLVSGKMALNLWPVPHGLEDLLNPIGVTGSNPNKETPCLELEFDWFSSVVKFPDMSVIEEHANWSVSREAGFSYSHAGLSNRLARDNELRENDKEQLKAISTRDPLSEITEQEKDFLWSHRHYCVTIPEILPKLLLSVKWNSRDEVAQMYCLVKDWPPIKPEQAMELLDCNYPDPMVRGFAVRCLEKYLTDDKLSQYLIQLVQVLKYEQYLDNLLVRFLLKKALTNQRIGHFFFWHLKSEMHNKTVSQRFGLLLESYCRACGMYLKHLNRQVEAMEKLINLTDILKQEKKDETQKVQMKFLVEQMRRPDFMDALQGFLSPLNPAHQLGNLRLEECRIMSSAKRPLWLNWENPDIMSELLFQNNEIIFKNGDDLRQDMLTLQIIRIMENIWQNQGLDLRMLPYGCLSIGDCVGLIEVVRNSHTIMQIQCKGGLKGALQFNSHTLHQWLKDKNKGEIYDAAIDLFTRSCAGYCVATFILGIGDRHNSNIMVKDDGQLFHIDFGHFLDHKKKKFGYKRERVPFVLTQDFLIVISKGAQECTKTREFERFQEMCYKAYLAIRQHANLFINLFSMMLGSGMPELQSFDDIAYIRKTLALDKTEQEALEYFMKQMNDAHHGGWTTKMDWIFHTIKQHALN
Sequence of PI3K-alpha (P27986 whole entry partner, species assumed): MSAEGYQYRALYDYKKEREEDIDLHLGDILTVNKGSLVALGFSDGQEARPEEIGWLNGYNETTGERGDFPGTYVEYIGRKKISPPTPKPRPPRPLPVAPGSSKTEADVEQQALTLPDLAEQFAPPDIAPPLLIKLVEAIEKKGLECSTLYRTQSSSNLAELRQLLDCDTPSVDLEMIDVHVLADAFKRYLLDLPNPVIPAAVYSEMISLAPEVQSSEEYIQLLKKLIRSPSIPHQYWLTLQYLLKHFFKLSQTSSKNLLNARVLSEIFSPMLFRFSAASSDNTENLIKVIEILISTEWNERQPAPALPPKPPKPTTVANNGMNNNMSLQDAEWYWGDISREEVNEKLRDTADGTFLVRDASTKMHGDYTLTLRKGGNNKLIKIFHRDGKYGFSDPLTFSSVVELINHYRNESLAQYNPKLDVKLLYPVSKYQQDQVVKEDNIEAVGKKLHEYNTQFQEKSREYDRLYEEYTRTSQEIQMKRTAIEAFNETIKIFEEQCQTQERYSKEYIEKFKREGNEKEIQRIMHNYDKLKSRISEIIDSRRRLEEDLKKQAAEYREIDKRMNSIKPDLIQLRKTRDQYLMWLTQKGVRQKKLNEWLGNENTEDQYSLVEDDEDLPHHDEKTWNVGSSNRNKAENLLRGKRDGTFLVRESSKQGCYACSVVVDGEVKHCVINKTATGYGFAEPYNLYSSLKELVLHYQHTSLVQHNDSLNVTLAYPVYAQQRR
Sequence of PI3K-gamma (P48736 whole entry, species assumed, the tested form may be a part, canonical isoform): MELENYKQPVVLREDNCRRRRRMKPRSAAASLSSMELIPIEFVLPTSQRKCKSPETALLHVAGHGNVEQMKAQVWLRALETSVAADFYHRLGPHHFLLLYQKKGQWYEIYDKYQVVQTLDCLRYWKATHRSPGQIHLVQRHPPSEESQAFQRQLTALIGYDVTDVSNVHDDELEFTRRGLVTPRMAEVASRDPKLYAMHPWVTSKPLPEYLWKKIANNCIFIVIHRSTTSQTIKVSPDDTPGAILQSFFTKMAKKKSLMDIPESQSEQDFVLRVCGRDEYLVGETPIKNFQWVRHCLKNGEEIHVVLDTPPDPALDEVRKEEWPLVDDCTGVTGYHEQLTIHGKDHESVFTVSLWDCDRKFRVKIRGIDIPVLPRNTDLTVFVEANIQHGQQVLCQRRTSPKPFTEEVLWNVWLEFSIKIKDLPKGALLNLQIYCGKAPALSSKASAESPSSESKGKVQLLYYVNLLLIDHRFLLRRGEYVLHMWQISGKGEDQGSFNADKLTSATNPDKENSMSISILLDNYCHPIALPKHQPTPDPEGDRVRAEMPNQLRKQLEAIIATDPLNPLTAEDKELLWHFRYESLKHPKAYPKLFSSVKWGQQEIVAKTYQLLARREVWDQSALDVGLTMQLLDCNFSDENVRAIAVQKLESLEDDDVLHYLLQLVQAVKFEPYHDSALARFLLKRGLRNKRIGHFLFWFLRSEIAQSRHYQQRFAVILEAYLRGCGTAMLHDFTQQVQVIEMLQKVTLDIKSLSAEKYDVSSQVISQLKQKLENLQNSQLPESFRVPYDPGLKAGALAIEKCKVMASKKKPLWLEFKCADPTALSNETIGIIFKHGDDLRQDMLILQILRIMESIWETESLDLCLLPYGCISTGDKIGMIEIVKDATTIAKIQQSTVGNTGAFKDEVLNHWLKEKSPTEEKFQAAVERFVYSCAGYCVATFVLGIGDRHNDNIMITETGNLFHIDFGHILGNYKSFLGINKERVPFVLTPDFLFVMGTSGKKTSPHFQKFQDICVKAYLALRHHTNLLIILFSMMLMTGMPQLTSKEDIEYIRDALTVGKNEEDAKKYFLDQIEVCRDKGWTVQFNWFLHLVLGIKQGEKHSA

For orientation: IC50 means the midpoint of a concentration-inhibition curve. `O=C1C(=Cc2c(-c3ccccc3)[nH]c3ccccc23)Oc2ccccc21` [Example 2, 2-[(2-phenyl-1H-indol-3-yl)methylene]-1-benzofuran-3(2H)-one]: the values for the concentration for half-maximal inhibition (IC50) at PI3K-alpha (read-out: PI3Kα Avg. IC50) and at human TOR (setting [1]) were above 10 µM and above 20 µM, respectively.

On to `Cn1c(-c2ccccc2)c(C=C2Oc3ccccc3C2=O)c2ccccc21` [Example 3, 2-[(1-methyl-2-phenyl-1H-indol-3-yl)methylene]-1-benzofuran-3(2H)-one], for which the IC50 on PI3K-alpha (read-out: PI3Kα Avg. IC50) was above 10 µM; on human TOR (setting [1]) it was above 20 µM.

On to `Cn1cc(C=C2Oc3ccccc3C2=O)c2ccccc21` [Example 4, 2-[(1-methyl-1H-indol-3-yl)methylene]-1-benzofuran-3(2H)-one], for which the IC50 at PI3K-alpha (read-out: PI3Kα Avg. IC50) was 12.3 µM; at human TOR (setting [1]), above 20 µM.

Regarding `O=C1C(=Cc2c[nH]c3ccccc23)Oc2cc(O)ccc21` [Example 5, 6-hydroxy-2-(1H-indol-3-ylmethylene)-1-benzofuran-3(2H)-one], the IC50 at PI3K-alpha (read-out: PI3Kα Avg. IC50) was above 10 µM; on human TOR (setting [1]) it was above 20 µM.

For `O=C1C(=Cc2c(-c3ccccc3)[nH]c3ccccc23)Oc2cc(O)ccc21` [Example 6, 6-hydroxy-2-[(2-phenyl-1H-indol-3-yl)methylene]-1-benzofuran-3(2H)-one], the IC50 was found to be 2.4 µM at PI3K-alpha (read-out: PI3Kα Avg. IC50) and 2.85 µM on human TOR (setting [1]).

Turning to `Cn1cc(C=C2Oc3cc(O)ccc3C2=O)c2ccccc21` [Example 8, 6-hydroxy-2-[(1-methyl-1H-indol-3-yl)methylene]-1-benzofuran-3(2H)-one], the IC50 at PI3K-alpha (read-out: PI3Kα Avg. IC50) was above 10 µM; at human TOR (setting [1]) it was above 20 µM.

On to `O=C1C(=Cc2c[nH]c3ccccc23)Oc2cc(O)cc(O)c21` [Example 13, 4,6-dihydroxy-2-(1H-indol-3-ylmethylene)-1-benzofuran-3(2H)-one], for which the values for the IC50 at PI3K-alpha (PI3Kα Avg. IC50) and at human TOR (mTOR Kinase Avg. IC50) were 6.75 µM and 9.2 µM, respectively.

For the compound `Cn1c(-c2ccccc2)c(C=C2Oc3cc(O)cc(O)c3C2=O)c2ccccc21` [Example 15, 4,6-dihydroxy-2-[(1-methyl-2-phenyl-1H-indol-3-yl)methylene]-1-benzofuran-3(2H)-one], the IC50 was 2.66 µM at PI3K-alpha (PI3Kα Avg. IC50) and 0.09 µM on human TOR (setting [1]).

Take `O=C1/C(=C/c2c[nH]c3ccc(OCc4ccccc4)cc23)Oc2cc(O)ccc21` [Example 34, (2Z)-2-{[5-(benzyloxy)-1H-indol-3-yl]methylene}-6-hydroxy-1-benzofuran-3(2H)-one]: the IC50 on PI3K-alpha (read-out: PI3Kα Avg. IC50) is above 10 µM; at human TOR (setting [1]) it was above 20 µM.

As for `O=C1/C(=C/c2c(-c3ccc(F)cc3)[nH]c3ccccc23)Oc2cc(O)cc(O)c21` [Example 46, (2Z)-2-{[2-(4-fluorophenyl)-1H-indol-3-yl]methylene}-4,6-dihydroxy-1-benzofuran-3(2H)-one], the IC50 against PI3K-alpha (PI3Kα Avg. IC50) worked out at 1.58 µM; on human TOR (setting [1]), 0.123 µM.

On to `Cc1[nH]c2ccccc2c1/C=C1\Oc2cc(O)cc(O)c2C1=O` [Example 47, (2Z)-4,6-dihydroxy-2-[(2-methyl-1H-indol-3-yl)methylene]-1-benzofuran-3(2H)-one], for which the half-maximal inhibitory concentration (IC50) against PI3K-alpha (PI3Kα Avg. IC50) turned out to be 3.2 µM; at human TOR (setting [1]) it was 0.5 µM.

With `Cc1ccc2c(/C=C3\Oc4cc(O)cc(O)c4C3=O)c[nH]c2c1` [Example 48, (2Z)-4,6-dihydroxy-2-[(6-methyl-1H-indol-3-yl)methylene]-1-benzofuran-3(2H)-one], the IC50 at PI3K-alpha (read-out: PI3Kα Avg. IC50) was 3.42 µM; at human TOR (setting [1]), above 5 µM.

Regarding `Cc1cccc2c(/C=C3\Oc4cc(O)cc(O)c4C3=O)c[nH]c12` [Example 49, (2Z)-4,6-dihydroxy-2-[(7-methyl-1H-indol-3-yl)methylene]-1-benzofuran-3(2H)-one], the IC50 at PI3K-alpha (read-out: PI3Kα Avg. IC50) was 2.43 µM; on human TOR (setting [1]) it was above 5 µM.

For `O=C1/C(=C/c2c(-c3ccc(F)cc3)[nH]c3ccccc23)Oc2c(O)cccc21` [Example 68, (2Z)-2-{[2-(4-fluorophenyl)-1H-indol-3-yl]methylene}-7-hydroxy-1-benzofuran-3(2H)-one], the IC50 on PI3K-alpha (PI3Kα Avg. IC50) was 0.481 µM; on PI3K-gamma it was 0.486 µM.

As to `COc1ccc2[nH]c(-c3ccccc3)c(C=C3Oc4c(ccc(O)c4O)C3=O)c2c1` [Example 71, 6,7-dihydroxy-2-[(5-methoxy-2-phenyl-1H-indol-3-yl)methylene]-1-benzofuran-3(2H)-one], the IC50 on PI3K-alpha (read-out: PI3Kα Avg. IC50) worked out at 0.0742 µM; against PI3K-gamma, 0.439 µM.

As for `COc1ccc2[nH]cc(CC3Oc4cc(O)cc(O)c4C3=O)c2c1` (stereo not shown) [Example 117, 4,6-dihydroxy-2-[(5-methoxy-1H-indol-3-yl)methyl]-1-benzofuran-3(2H)-one], the values for the IC50 on PI3K-alpha (read-out: PI3Kα Avg. IC50) and on PI3K-gamma were 1.84 µM and 8.6 µM, respectively.

For the compound `COc1ccc2[nH]c(-c3ccccc3)c(CC3Oc4cc(O)cc(O)c4C3=O)c2c1` (stereo not shown) [Example 118, 4,6-dihydroxy-2-[(5-methoxy-2-phenyl-1H-indol-3-yl)methyl]-1-benzofuran-3(2H)-one], the IC50 on PI3K-alpha (read-out: PI3Kα Avg. IC50) came to 0.288 µM; against PI3K-gamma, 0.932 µM.

As for `COc1ccc2[nH]c(C)c(CC3Oc4cc(O)cc(O)c4C3=O)c2c1` (stereo not shown) [Example 119, 4,6-dihydroxy-2-[(5-methoxy-2-methyl-1H-indol-3-yl)methyl]-1-benzofuran-3(2H)-one], the IC50 at PI3K-alpha (read-out: PI3Kα Avg. IC50) was 3.83 µM; against PI3K-gamma, above 10 µM.

`COc1ccc2[nH]c(C)c(C=C3Oc4c(O)cccc4C3=O)c2c1` [Example 120, 7-hydroxy-2-[(5-methoxy-2-methyl-1H-indol-3-yl)methylene]-1-benzofuran-3(2H)-one]: the figures for the IC50 at PI3K-alpha (read-out: PI3Kα Avg. IC50) and at PI3K-gamma were 1.54 µM and 10.3 µM, respectively.

As to `COc1ccc2c(c1)c(C=C1Oc3cccc(O)c3C1=O)c(C)n2C` [Example 121, 4-hydroxy-2-[(5-methoxy-1,2-dimethyl-1H-indol-3-yl)methylene]-1-benzofuran-3(2H)-one], the results for the IC50 at PI3K-alpha (read-out: PI3Kα Avg. IC50) and against PI3K-gamma were 0.317 µM and 5.43 µM, respectively.

With `COc1ccc2c(c1)c(C=C1Oc3c(ccc(O)c3O)C1=O)c(C)n2CCCCCl` [Example 122, 2-{[1-(4-chlorobutyl)-5-methoxy-2-methyl-1H-indol-3-yl]methylene}-6,7-dihydroxyl-1-benzofuran-3(2H)-one], the results for the IC50 at PI3K-alpha (read-out: PI3Kα Avg. IC50) and against PI3K-gamma were 0.137 µM and 1.5 µM, respectively.

For `COc1ccc2c(c1)c(C=C1Oc3cccc(O)c3C1=O)c(C)n2CCCCCl` [Example 123, 2-{[1-(4-chlorobutyl)-5-methoxy-2-methyl-1H-indol-3-yl]methylene}-4-hydroxy-1-benzofuran-3(2H)-one], the IC50 was 1.22 µM at PI3K-alpha (read-out: PI3Kα Avg. IC50) and above 10 µM on PI3K-gamma.

As to `COc1ccc2c(c1)c(C=C1Oc3c(ccc(O)c3O)C1=O)c(C)n2CCCCl` [Example 124, 2-{[1-(3-chloropropyl)-5-methoxy-2-methyl-1H-indol-3-yl]methylene}-6,7-dihydroxy-1-benzofuran-3(2H)-one], the results for the IC50 on PI3K-alpha (read-out: PI3Kα Avg. IC50) and on PI3K-gamma were 0.0645 µM and 1.22 µM, respectively.

For the compound `COc1ccc2c(c1)c(C=C1Oc3cccc(O)c3C1=O)c(C)n2CCCCl` [Example 125, 2-{[1-(3-chloropropyl)-5-methoxy-2-methyl-1H-indol-3-yl]methylene}-4-hydroxy-1-benzofuran-3(2H)-one], the IC50 turned out to be 0.38 µM at PI3K-alpha (read-out: PI3Kα Avg. IC50) and 0.933 µM at PI3K-gamma.

Regarding `COc1ccc2c(c1)c(C=C1Oc3cccc(O)c3C1=O)c(C)n2CCCCN1CCN(C)CC1` [Example 135, 4-hydroxy-2-({5-methoxy-2-methyl-1-[4-(4-methylpiperazin-1-yl)butyl]-1H-indol-3-yl}methylene)-1-benzofuran-3(2H)-one], the IC50 was determined as 1.3 µM on PI3K-alpha (read-out: PI3Kα Avg. IC50) and 4.77 µM on PI3K-gamma.

`COc1ccc2c(c1)c(C=C1Oc3cccc(O)c3C1=O)c(C)n2CCCCN1CCOCC1` [Example 136, 4-hydroxy-2-{[5-methoxy-2-methyl-1-(4-morpholin-4-ylbutyl)-1H-indol-3-yl]methylene}-1-benzofuran-3(2H)-one]: the figures for the IC50 at PI3K-alpha (read-out: PI3Kα Avg. IC50) and on PI3K-gamma were 0.235 µM and 2.48 µM, respectively.

On to `COc1ccc2c(c1)c(C=C1Oc3cccc(O)c3C1=O)c(C)n2CCCCN1CCN(CCO)CC1` [Example 137, 4-hydroxy-2-[(1-{4-[4-(2-hydroxyethyl)piperazin-1-yl]butyl}-5-methoxy-2-methyl-1H-indol-3-yl)methylene]-1-benzofuran-3(2H)-one], for which the IC50 on PI3K-alpha (read-out: PI3Kα Avg. IC50) is 0.478 µM; against PI3K-gamma it was 2.77 µM.

Turning to `COc1cc2[nH]cc(C=C3Oc4cc(O)cc(O)c4C3=O)c2cc1OC` [Example 181, 2-[(5,6-dimethoxy-1H-indol-3-yl)methylene]-4,6-dihydroxy-1-benzofuran-3(2H)-one], the figures for the IC50 at PI3K-alpha (read-out: PI3Kα Avg. IC50) and at PI3K-gamma were 0.502 µM and 1.75 µM, respectively.

As for `N#CCCCn1cc(C=C2Oc3cc(O)cc(O)c3C2=O)c2cc(F)ccc21` [Example 231, 4-{3-[(4,6-dihydroxy-3-oxo-1-benzofuran-2(3H)-ylidene)methyl]-5-fluoro-1H-indol-1-yl}butanenitrile], the IC50 on PI3K-alpha (read-out: PI3Kα Avg. IC50) was 3.5 µM; against PI3K-gamma it was above 10 µM.

In the case of `Cn1cc(C=C2Oc3cc(O)cc(O)c3C2=O)c2c(-c3ccccc3)cccc21` [Example 268, 4,6-dihydroxy-2-[(1-methyl-4-phenyl-1H-indol-3-yl)methylene]-1-benzofuran-3(2H)-one], the IC50 was above 5.74 µM on PI3K-alpha (read-out: PI3Kα Avg. IC50) and 2.69 µM on PI3K-gamma.

Regarding `O=C1/C(=C/c2c(-c3ccccc3)[nH]c3ccccc23)Sc2ccccc21` [Example 274, (2Z)-2-[(2-phenyl-1H-indol-3-yl)methylene]-1-benzothiophen-3(2H)-one], the IC50 at PI3K-alpha (read-out: PI3Kα Avg. IC50) was 0.287 µM; against PI3K-gamma it was 0.255 µM.

Consider `O=C1/C(=C/c2c(-c3ccc(F)cc3)[nH]c3ccccc23)Sc2ccccc21` [Example 277, (2Z)-2-{[2-(4-fluorophenyl)-1H-indol-3-yl]methylene}-1-benzothiophen-3(2H)-one], for which the IC50 on PI3K-alpha (read-out: PI3Kα Avg. IC50) amounted to 0.268 µM; at PI3K-gamma, 0.264 µM.

The record behind these values is US20090311217A1, “3-SUBSTITUTED-1H-INDOLE COMPOUNDS, THEIR USE AS MTOR KINASE AND PI3 KINASE INHIBITORS, AND THEIR SYNTHESES” (priority 2008, published 2009).
